The values below come from patent US20250326748A1, “COMPOUNDS AND METHODS FOR MODULATING SPLICING” (REMIX THERAPEUTICS INC., priority 2022, published 2025).

Counter-ions that a name gives are not always drawn.

In the data set the test system is K562 cells. In words: Cell viability, Cell Titer Glo 2.0 assay, K562. As to conditions: 72 hours.

For `COc1nc(-c2cc3cn(C)nc3c(F)c2O)nc2ncc(N3CCC(N(C)C)CC3)cc12` [Compound 219, 5-{6-[4-(dimethylamino)piperidin-1-yl]-4-methoxypyrido[2,3-d]pyrimidin-2-yl}-7-fluoro-2-methylindazol-6-ol], the “Effect on Cell Viability, K562” value is on record as “A (<100 nM)”. Under `CN(C)[C@@H]1CCN(c2cnc3nc(-c4cc5cn(C)nc5c(F)c4O)cc(Cl)c3c2)C1` [Compound 220] stands “A (<100 nM)”; under `CN(C)[C@H]1CCN(c2cnc3nc(-c4cc5cn(C)nc5c(F)c4O)cc(Cl)c3c2)C1` [Compound 221], “A (<100 nM)”; under `C[C@H]1CN(c2cnc3nc(-c4cc5cn(C)nc5cc4O)cc(Cl)c3c2)C[C@H](C)N1` [Compound 242], “A (<100 nM)”. In the case of `C[C@@H]1CN(c2cnc3nc(-c4cc5cn(C)nc5cc4O)cc(Cl)c3c2)C[C@@H](C)N1` [Compound 243, 5-{4-chloro-6-[(3R,5R)-3,5-dimethylpiperazin-1-yl]-1,8-naphthyridin-2-yl}-2-methylindazol-6-ol hydrochloride], the “Effect on Cell Viability, K562” value is “B (100-1000 nM)”. With `C[C@H]1CN(c2cnc3nc(-c4cc(F)c5nn(C)cc5c4)cc(Cl)c3c2)C[C@H](C)N1` [Compound 250], the “Effect on Cell Viability, K562” value is given as “A (<100 nM)”. `C[C@@H]1CN(c2cnc3nc(-c4cc(F)c5nn(C)cc5c4)cc(Cl)c3c2)C[C@@H](C)N1` [Compound 251]: the “Effect on Cell Viability, K562” value was “B (100-1000 nM)”.

For the compound `Cc1c(O)c(-c2cc(-c3nnc[nH]3)c3cc(N4C[C@@H](C)N[C@@H](C)C4)cnc3n2)cc2cn(C)nc12` [Compound 261, 5-{6-[(3R,5S)-3,5-dimethylpiperazin-1-yl]-4-(4H-1,2,4-triazol-3-yl)-1,8-naphthyridin-2-yl}-2,7-dimethylindazol-6-ol], the “Effect on Cell Viability, K562” value is given as “D (greater than 10 μM)”. Regarding `C[C@@H]1CN(c2cnc3nc(-c4cc5cn(C)nc5c(F)c4O)cc(C#N)c3c2)C[C@H](C)N1` [Compound 266, 6-[(3R,5S)-3,5-dimethylpiperazin-1-yl]-2-(7-fluoro-6-hydroxy-2-methylindazol-5-yl)-1,8-naphthyridine-4-carbonitrile hydrochloride], the “Effect on Cell Viability, K562” value was “A (<100 nM)”. Consider `CN[C@@H]1CCN(c2cnc3nc(-c4cc5cn(C)nc5c(F)c4O)cc(Cl)c3c2)C1` [Compound 271], for which the “Effect on Cell Viability, K562” value is recorded as “A (<100 nM)”.
